Measurements reported in patent US12102667B2, “Polypeptides and antibiotics against gram-negative bacterium comprising the same” (priority 2021, dated 2024).
“Also recorded” adds a separate entry of the source.

Legend:
E. coli [1] = assay: Checkerboard assay (MIC in combination, FIC index); type: cell-based, Escherichia coli; set-up: MIC of colistin: unit not given here; conditions: for MIC of colistin: colistin-resistant E. coli FORC81
Procedure: LNT113 was vertically diluted 2-fold and the antibiotic was serially diluted horizontally in a 96-well plate. Bacterium at a concentration of 10^6 CFU/ml were added to each well in a CAA medium. […] The fractional inhibitory concentration (FIC) for the LNT113 or antibiotic was calculated by dividing the MIC of two drugs by combining it with the MIC of each drug alone. […] The FICI was considered as a synergistic effect ≤0.5, an additive >0.5 ˜≤1, an independent effect (indifference)>1.0 ˜≤2, and an antagonistic effect (antagonism) >2.

E. coli [2] = conditions: E. coli CCARM 1A746; cited from earlier work
K. pneumoniae = K. pneumoniae CCARM 10143; cited from earlier work
E. coli [3] = assay: Antibacterial activity analysis (colony count after 2 hours in buffer); type: cell-based, Escherichia coli; conditions: colistin-resistant E. coli FORC81; 2 μM, 2 hours
Procedure: The antibacterial activity of the purified protein was tested for E. coli and various K. pneumoniae strains. The bacterium were grown to an exponential phase (OD600=0.5) and harvested by centrifugation at 12,000×g for 3 minutes. Then, the pellets were washed with reaction buffer solution (20 mM Tris-HCl, pH 7.5) and diluted to about 10^6 cells/ml in the buffer solution. Then, 100 μl bacterial suspension was mixed with the purified endolysin of 100 μl in the reaction buffer solution and incubated at 37° C. for 2 hours. Finally, the mixture was diluted with PBS and loaded on an LB plate. After culturing at 37° C. overnight, the bacterial colonies were counted. All the analysis was performed in triplicate.
The same reaction was performed for the selected subject bacterium in 20 mM HEPES-NaOH, 150 mM NaCl [pH 7.4], and the unique antibacterial activity of Tris and dependence of endolysin for turgor pressure were excluded (FIG. 10a and FIG. 10b). […] The bacterial cells grown geometrically were cultured with 2 μM endolysin in low tonicity buffers (20 mM Tris-HCl, pH 7.5 or 20 mM HEPES, pH 7.5) or high tonicity buffers (buffer solution comprising 150 mM NaCl) at 37° C. for 2 hours. The cells treated with storage buffer solution (20 mM Tris-HCl, pH 7.5, 150 mM NaCl buffer solution (pH 7.5)) were used as a negative control group. The dotted line represents the detection limit (1 Log CFU/ml).
For this, endolysin EC340 at a concentration of 2 μM and each test bacterium were added to reaction buffer (20 mM Tris-Cl, pH 7.5) so that the final concentration was to be 200 μl, and were left at 37° C. for 2 hours. After 2 hours, the number of colonies of Acinetobacter baumannii, Pseudomonas aeruginosa and Escherichia coli was confirmed, and the result was shown in FIG. 3.

[4] = antibiotic combined with LNT113, E. coli ATCC 8739
[5] = antibiotic combined with LNT113, E. coli ATCC 51739
[6] = antibiotic combined with LNT113, E. coli FORC81
[7] = antibiotic combined with LNT113, E. coli UPEC 3150
[8] = antibiotic combined with LNT113, E. coli CCARM 1A746
[9] = antibiotic combined with LNT113, E. coli strains overall

O=C(N[C@H](CO)[C@H](O)c1ccc([N+](=O)[O-])cc1)C(Cl)Cl [Chloramphenicol]
Fractional inhibitory concentration index (FICI) of LNT113 using various antibiotics (E. coli [1]; [4]): 1 | Fractional inhibitory concentration index (FICI) of LNT113 using various antibiotics (E. coli [1]; [5]): 0.75 | Fractional inhibitory concentration index (FICI) of LNT113 using various antibiotics (E. coli [1]; [6]): 2 | Fractional inhibitory concentration index (FICI) of LNT113 using various antibiotics (E. coli [1]; [7]): 0.75

Trimethoprim-sulfamethoxazole
MIC of antibiotics (E. coli [2]): ≥128 µg/mL | MIC of antibiotics (K. pneumoniae): ≥32 µg/mL

NC[C@H]1O[C@H](O[C@H]2[C@H](O)[C@@H](O[C@H]3O[C@H](CO)[C@@H](O)[C@H](N)[C@H]3O)[C@H](N)C[C@@H]2N)[C@H](O)[C@@H](O)[C@@H]1O [Kanamycin]
Fractional inhibitory concentration index (FICI) of LNT113 using various antibiotics (E. coli [1]; [4]): 2 | Fractional inhibitory concentration index (FICI) of LNT113 using various antibiotics (E. coli [1]; [5]): 1 | Fractional inhibitory concentration index (FICI) of LNT113 using various antibiotics (E. coli [1]; [6]): 1 | Fractional inhibitory concentration index (FICI) of LNT113 using various antibiotics (E. coli [1]; [7]): 1

CC(C)(O/N=C(\C(=O)N[C@@H]1C(=O)N2C(C(=O)[O-])=C(C[n+]3ccccc3)CS[C@H]12)c1csc(N)n1)C(=O)O [Ceftazidime]
Fractional inhibitory concentration index (FICI) of LNT113 using various antibiotics (E. coli [1]; [4]): 2 | Fractional inhibitory concentration index (FICI) of LNT113 using various antibiotics (E. coli [1]; [5]): 2 | Fractional inhibitory concentration index (FICI) of LNT113 using various antibiotics (E. coli [1]; [8]): 2 | Fractional inhibitory concentration index (FICI) of LNT113 using various antibiotics (E. coli [1]; [6]): 1 | Fractional inhibitory concentration index (FICI) of LNT113 using various antibiotics (E. coli [1]; [7]): 1 | combination effect with LNT113, in words (E. coli [1]; [9]): Neither ceftazidime and kanamycin showed a synergistic or additive effect; also recorded: little additive effect

Colistin
strains in which the synergistic effect with LNT113 was observed (E. coli [1]; 5 different E. coli strains): 4 strains among 5 strains | MIC of endolysin combined with colistin: Colistin (E. coli [1]; E. coli ATCC8738, EC340 0): 2 µg/mL | MIC of endolysin combined with colistin: Colistin (E. coli [1]; E. coli ATCC8738, EC340 16): 0.125 µg/mL | MIC of endolysin combined with colistin: Colistin (E. coli [1]; E. coli ATCC8738, EC340 32): 0.0625 µg/mL | MIC of endolysin combined with colistin: Colistin (E. coli [1]; E. coli ATCC8738, EC340 <2): 0.25 µg/mL | MIC of endolysin combined with colistin: Colistin (E. coli [1]; E. coli ATCC8738, mtEC340 0): 2 µg/mL | MIC of endolysin combined with colistin: Colistin (E. coli [1]; E. coli ATCC8738, mtEC340 16): 0.125 µg/mL | MIC of endolysin combined with colistin: Colistin (E. coli [1]; E. coli ATCC8738, mtEC340 32): 0.125 µg/mL | MIC of endolysin combined with colistin: Colistin (E. coli [1]; E. coli ATCC8738, mtEC340 <2): 0.25 µg/mL | combination effect with LNT113 (FICI class) (E. coli [1]; E. coli ATCC 8739): synergistic effect (a synergistic effect ≤0.5) | MIC of endolysin combined with colistin: Colistin (E. coli [1]; E. coli ATOCB739, LNT113 0): 2 µg/mL | MIC of endolysin combined with colistin: Colistin (E. coli [1]; E. coli ATOCB739, LNT113 1): 1 µg/mL | MIC of endolysin combined with colistin: Colistin (E. coli [1]; E. coli ATOCB739, LNT113 2): 0.5 µg/mL | MIC of endolysin combined with colistin: Colistin (E. coli [1]; E. coli ATOCB739, LNT113 4): 0.0625 µg/mL | combination effect with LNT113 (FICI class) (E. coli [1]; E. coli FORC81): synergistic effect (a synergistic effect ≤0.5) | MIC of endolysin combined with colistin: Colistin (E. coli [1]; E. coli FORC81, LNT113 0): 16 µg/mL | MIC of endolysin combined with colistin: Colistin (E. coli [1]; E. coli FORC81, LNT113 2): 4 µg/mL | MIC of endolysin combined with colistin: Colistin (E. coli [1]; E. coli FORC81, LNT113 4): 1 µg/mL | MIC of endolysin combined with colistin: Colistin (E. coli [1]; E. coli FORC81, LNT113 <0.25): 8 µg/mL | combination effect with LNT113 (FICI class) (E. coli [1]; E. coli UPEC 3150): synergistic effect (a synergistic effect ≤0.5) | MIC of endolysin combined with colistin: Colistin (E. coli [1]; E. coli UPEC3150, LNT113 0): 4 µg/mL | MIC of endolysin combined with colistin: Colistin (E. coli [1]; E. coli UPEC3150, LNT113 1): 2 µg/mL | MIC of endolysin combined with colistin: Colistin (E. coli [1]; E. coli UPEC3150, LNT113 2): 0.5 µg/mL | MIC of endolysin combined with colistin: Colistin (E. coli [1]; E. coli UPEC3150, LNT113 4): 0.0625 µg/mL | MIC of colistin in presence of endolysin EC340 or mtEC340 (E. coli [1]; Table 3): significantly reduced | Fractional inhibitory concentration index (FICI) of LNT113 using various antibiotics (E. coli [1]; [4]): 0.25 | Fractional inhibitory concentration index (FICI) of LNT113 using various antibiotics (E. coli [1]; [5]): 0.5 | Fractional inhibitory concentration index (FICI) of LNT113 using various antibiotics (E. coli [1]; [8]): 0.63 | Fractional inhibitory concentration index (FICI) of LNT113 using various antibiotics (E. coli [1]; [6]): 0.5 | Fractional inhibitory concentration index (FICI) of LNT113 using various antibiotics (E. coli [1]; [7]): 0.38 | Fractional inhibitory concentration index (FICI) of LNT113 using various antibiotics (E. coli [1]; antibiotic combined with LNT113, E. coli UPEC 3150, listed as colistin): 0.375 | combination effect with LNT113 (FICI class) (E. coli [1]; [9]): synergistic effect (a synergistic effect ≤0.5) | MIC of colistin (E. coli [1]; colistin alone): 16 | MIC of colistin (E. coli [1]; in combination with LNT113 of 4 mg/ml): 1 | decrease of bacterial cells (E. coli [3]): 1.2 log
